From patent publication US9493451B2 (Bionomics Limited, priority 2011, dated 2016)

Biological target: T1, Kv1.3 (Homo sapiens, UniProt P22001)
T1 construct: expressed in transfected cells; host or cells: CHO (Kv1.3/CHO)
Assay: Electrophysiology: planar patch-clamp of Kv1.3 currents, IC50 from steady state current amplitude
Assay type: cell-based
Details: Kv1.3 electrophysiology, results according to Method D1, read-out: IC50 (Kv1.3 ephys steady state)
Description: The inhibition data shown for the compounds of the list below was calculated using the steady state current amplitude at the end of the depolarising pulse in patch clamp evaluations (as described in the Biology Protocols: 1. Electrophysiology).
Kv1.x currents were measured in Kv1.3/CHO or Kv1.5/CHO cells using a planar electrode version (Nanion Technologies GMBH) of the patch-clamp technique. Whole-cell Kv1.x current transients were evoked by 500 ms depolarising voltage pulses to +40 mV from a holding potential of −80 mV applied at 10 s intervals for Kv1.5 and at 30 s intervals for Kv1.3 to allow adequate time for recovery from inactivation. Cells were continuously bathed in a buffered saline solution containing (mM): 160 NaCl, 4.5 KCl, 2 CaCl2, 1 MgCl2, 5 glucose, 10 HEPES, pH 7.4, 290-310 mOsm·Kg^−1. The internal (pipette) solution contained (mM): 10 NaCl, 70 KF, 75 KCl, 2 MgCl2, 10 HEPES, 10 EGTA, pH 7.2, 290-310 mOsm·Kg^−1. Series resistance compensation (60-80%) was applied to cells in which the peak current amplitude exceeded 2 nA.
Compound Preparation and Potency Assessment
Compounds were initially dissolved in DMSO to 10 mM. After further dilution in DMSO, compounds were finally diluted in bath solution 1/200 (to give a final DMSO concentration of 0.5%) and applied directly to the recording chamber. Compounds were added at increasing concentrations allowing ample time for steady state block to be achieved between each concentration. Each compound was tested at 5-6 different concentrations on 2-3 cells. Compound IC50 values were determined by fitting the average normalised reduction of either the current integral or the steady state current amplitude at the end of the 500 ms depolarising pulse obtained at each compound concentration to the Hill equation. The IC50 data reported herein is based on the steady state calculation.

T1 sequence (P22001 whole entry): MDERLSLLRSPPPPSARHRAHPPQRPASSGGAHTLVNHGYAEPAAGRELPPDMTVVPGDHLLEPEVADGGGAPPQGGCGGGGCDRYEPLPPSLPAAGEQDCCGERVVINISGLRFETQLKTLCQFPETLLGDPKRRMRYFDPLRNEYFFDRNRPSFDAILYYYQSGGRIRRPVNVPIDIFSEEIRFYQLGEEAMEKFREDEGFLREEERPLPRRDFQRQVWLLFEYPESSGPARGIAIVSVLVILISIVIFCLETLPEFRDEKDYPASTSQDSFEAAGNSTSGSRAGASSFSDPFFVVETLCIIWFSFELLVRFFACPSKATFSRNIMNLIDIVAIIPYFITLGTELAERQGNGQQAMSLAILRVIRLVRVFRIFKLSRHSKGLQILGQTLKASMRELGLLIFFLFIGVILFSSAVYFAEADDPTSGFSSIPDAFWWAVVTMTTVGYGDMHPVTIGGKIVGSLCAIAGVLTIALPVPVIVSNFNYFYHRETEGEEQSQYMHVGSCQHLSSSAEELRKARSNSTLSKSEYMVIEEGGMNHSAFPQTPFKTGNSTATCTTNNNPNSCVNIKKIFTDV

Compound | IC50
CCS(=O)(=O)c1cccc(C(C2CC2)N(Cc2ccccn2)C(=O)C(C)(C)S(=O)(=O)c2ccccc2)c1 (centres unmarked) [Example 328] | 200 to 1000 nM
CC(C(=O)N(Cc1ccccn1)C(c1ccc(Cl)cc1)C1CC1)S(=O)(=O)c1ccc(F)cc1 (single isomer, unassigned) [Example 297] | 200 to 1000 nM
CC(c1ccc(S(C)(=O)=O)cc1)N(Cc1ccc(C(F)(F)F)nc1)C(=O)C1CC1c1ccc(F)cc1 (centres unmarked) [Example 126] | 200 to 1000 nM
O=C(CS(=O)(=O)c1ccccc1)N(Cc1ccc(C(F)(F)F)nc1)C(c1ccc(OC(F)F)cc1)C1CC1 (centres unmarked) [Example 302] | 50 to 200 nM
CCS(=O)(=O)c1cccc(C(C2CC2)N(C(=O)C2CC2c2ccccc2OC(F)(F)F)C2CCOCC2)c1 (centres unmarked) [Example 220] | 50 to 200 nM
CC(C)(C(=O)N(Cc1cccnn1)C(c1ccc(OC(F)F)cc1)C1CC1)S(=O)(=O)c1ccc(F)cc1 (centres unmarked) [Example 311] | 200 to 1000 nM
O=C([C@@H]1C[C@H]1c1ccc(F)cc1)N(Cc1cccnn1)[C@@H](c1ccc(OC(F)F)cc1)C1CC1 [Example 97, (1R,2R)-2-(4-Fluoro-phenyl)-cyclopropanecarboxylic acid [(R)-cyclopropyl-(4-difluoromethoxy-phenyl)-methyl]-pyridazin-3-ylmethyl-amide] | < 50 nM
CN1CC(C(c2ccc(OC(F)F)cc2)N(Cc2ncccc2F)C(=O)C2CC2c2ccc(F)cc2)C1 (centres unmarked) [Example 150] | 200 to 1000 nM
CCS(=O)(=O)c1cccc(C(C2CC2)N(Cc2cccnn2)C(=O)C2CC2c2cccc(C(F)(F)F)c2)c1 (centres unmarked) [Example 226] | 200 to 1000 nM
CCC(c1ccc(S(C)(=O)=O)cc1)N(Cc1ccc(C(F)(F)F)nc1)C(=O)C1CC1c1ccc(F)cc1 (centres unmarked) [Example 121] | 50 to 200 nM
O=C(C1CC1c1ccc(F)cc1)N(Cc1ncccc1F)C(c1ccc(F)cc1)C1CCOC1 (centres unmarked) [Example 172] | 50 to 200 nM
CCC(c1ccc(S(C)(=O)=O)cc1)N(Cc1ccc(C(F)(F)F)nc1)C(=O)C1CC1c1ccc(F)cc1F (centres unmarked) [Example 127] | 50 to 200 nM
CCS(=O)(=O)c1cccc(C(C2CC2)N(Cc2ncccc2F)C(=O)CS(=O)(=O)c2ccccc2)c1 (centres unmarked) [Example 327] | 1000 to 2000 nM
CC(C)(C(=O)N(Cc1ccc(C(F)(F)F)nc1)C(c1ccc(OC(F)F)cc1)C1CC1)S(=O)(=O)c1ccccc1 (centres unmarked) [Example 324] | 50 to 200 nM
N#Cc1cccc(C(C2CC2)N(Cc2ccc(C(F)(F)F)nc2)C(=O)CS(=O)(=O)c2ccc(F)cc2)c1 (centres unmarked) [Example 333] | 200 to 1000 nM
CCS(=O)(=O)c1cccc(C(C2CC2)N(CC(F)(F)c2ccccn2)C(=O)C2CC2c2ccc(F)cc2)c1 (centres unmarked) [Example 191] | 50 to 200 nM
CC(CC(=O)N(Cc1ccc(F)cn1)C(c1ccc(S(=O)(=O)C(C)C)cc1)C1CC1)c1ccc(F)cc1 (centres unmarked) [Example 264] | < 50 nM
O=C(CS(=O)(=O)c1ccc(F)cc1)N(Cc1ccccn1)C(c1ccc(OC(F)F)cc1)C1CC1 (centres unmarked) [Example 314] | 200 to 1000 nM
O=C(C1CC1c1ccc(F)cc1)N(Cc1ccc(F)cn1)C(c1ccc(F)cc1)C1CCOC1 (centres unmarked) [Example 175] | 200 to 1000 nM
CCS(=O)(=O)c1cccc(C(C2CC2)N(Cc2ncccc2F)C(=O)C2CC2c2ccc(F)cc2)c1 (centres unmarked) [Example 218] | 50 to 200 nM
O=C([C@H]1C[C@@H]1c1ccc(F)cc1)N(Cc1ccccn1)[C@@H](c1ccc(Cl)cc1)C1CC1 (stereo in doubt) [Example 14, N-[(4-chlorophenyl)(cyclopropyl)methyl]-2-(4-fluorophenyl)-N-(pyridin-2-ylmethyl)cyclopropanecarboxamide] | < 50 nM
CN1C2CCC1CC(N(C(=O)CS(=O)(=O)c1ccccc1)C(c1ccc(Cl)cc1)C1CC1)C2 (racemic) [Example 93, N-[(4-chlorophenyl)(cyclopropyl)methyl]-N-(8-methyl-8-azabicyclo[3.2.1]oct-3-yl)-2-(phenylsulfonyl)acetamide] | 50 to 200 nM
O=C(CS(=O)(=O)c1ccc(F)cc1)N(Cc1ncccc1F)C(c1ccc(OC(F)F)cc1)C1CC1 (centres unmarked) [Example 309] | 50 to 200 nM
CCC(c1ccc(S(C)(=O)=O)cc1)N(Cc1cccnn1)C(=O)C1CC1c1ccc(F)cc1 (centres unmarked) [Example 124] | 200 to 1000 nM
O=C(CS(=O)(=O)c1cccc(C(F)(F)F)c1)N(Cc1ccccn1)C(c1ccc(Cl)cc1)C1CC1 (centres unmarked) [Example 294] | 50 to 200 nM

Compound | IC50
CC(C)S(=O)(=O)c1cccc(C(C2CC2)N(Cc2ccc(F)cn2)C(=O)C2CC2c2ccc(F)cc2)c1 (centres unmarked) [Example 242] | 50 to 200 nM
CCS(=O)(=O)c1cccc(C(C2CC2)N(C(=O)C2CC2c2ccccc2OC(F)(F)F)C2CCOCC2)c1 (centres unmarked) [Example 221] | 200 to 1000 nM
O=C(CS(=O)(=O)c1ccccc1)N(Cc1ccc(C(F)(F)F)nc1)C(c1ccc(OC(F)F)cc1)C1CC1 (centres unmarked) [Example 301] | 50 to 200 nM
CC(C)S(=O)(=O)c1ccc(C(C2CC2)N(Cc2ccc(F)cn2)C(=O)C2CC2c2ccc(F)cc2)cc1 (centres unmarked) [Example 239] | 200 to 1000 nM
N#Cc1cccc(C(C2CC2)N(Cc2ncccc2F)C(=O)C2CC2c2ccc(F)cc2)c1 (centres unmarked) [Example 252] | 50 to 200 nM
O=C(C1CC1c1ccc(F)cc1)N(Cc1cnc[nH]1)C(c1ccc(OC(F)F)cc1)C1CC1 (centres unmarked) [Example 183] | 200 to 1000 nM
CN1CC(C(c2ccc(OC(F)F)cc2)N(Cc2ccc(C(F)(F)F)cn2)C(=O)C2CC2c2ccc(F)cc2)C1 (centres unmarked) [Example 161] | 200 to 1000 nM
O=C(CS(=O)(=O)c1cccc(C(F)(F)F)c1)N(Cc1cccnn1)C(c1ccc(OC(F)F)cc1)C1CC1 (centres unmarked) [Example 310] | 200 to 1000 nM
CC(C)S(=O)(=O)c1cccc(C(C2CC2)N(Cc2ccncn2)C(=O)C2CC2c2ccc(F)cc2)c1 (centres unmarked) [Example 247] | 50 to 200 nM
Cc1ccc(CN(C(=O)CS(=O)(=O)c2ccccc2)C(c2ccc(OC(F)F)cc2)C2CC2)cn1 (centres unmarked) [Example 323] | 200 to 1000 nM
CC(C)S(=O)(=O)c1cccc(C(C2CC2)N(Cc2cccnn2)C(=O)C2CC2c2ccc(F)cc2)c1 (centres unmarked) [Example 240] | 200 to 1000 nM
CCS(=O)(=O)c1cccc(C(C2CCN(C)CC2)N(Cc2ccc(F)cn2)C(=O)C2CC2c2ccc(F)cc2)c1 (centres unmarked) [Example 143] | 200 to 1000 nM
O=C(CS(=O)(=O)c1ccccc1)N(Cc1ncccc1F)C(c1ccc(OC(F)F)cc1)C1CC1 (centres unmarked) [Example 303] | 50 to 200 nM
CC(CC(=O)N(Cc1cccnn1)C(c1ccc(OC(F)F)cc1)C1CC1)c1ccccc1C(F)(F)F (centres unmarked) [Example 260] | 50 to 200 nM
CC(CC(=O)N(Cc1ccc(C(F)(F)F)nc1)C(C)c1ccc2c(c1)CCC2)c1ccc(F)cc1 (single isomer, unassigned) [Compound 39, N-[1-(2,3-dihydro-1H-inden-5-yl)ethyl]-3-(4-fluorophenyl)-N-{[6-(trifluoromethyl)pyridin-3-yl]methyl}butanamide] | 50 to 200 nM
CC(C)S(=O)(=O)c1cccc(C(C2CC2)N(Cc2cncc(F)c2)C(=O)C2CC2c2ccc(F)cc2)c1 (centres unmarked) [Example 244] | 200 to 1000 nM
CCC(c1ccc(S(=O)(=O)C(C)C)cc1)N(Cc1cccnn1)C(=O)C1CC1c1ccc(F)cc1 (centres unmarked) [Example 130] | 200 to 1000 nM
CCS(=O)(=O)c1cccc([C@H](C2CC2)N(Cc2ccc(C(F)(F)F)nc2)C(=O)[C@@H]2C[C@H]2c2ccc(F)cc2)c1 [Example 100, (1R, 2R)-2-(4-Fluoro-phenyl)-cyclopropanecarboxylic acid [(S)-cyclopropyl-(3-ethanesulfonyl-phenyl)-methyl]-(6-trifluoromethyl-pyridin-3-ylmethyl)-amide] | 50 to 200 nM
CC(CC(=O)N(Cc1ccccn1)C(c1ccc2c(c1)S(=O)(=O)C(C)(C)O2)C1CC1)c1ccc(F)cc1 (single isomer, unassigned) [Example 74, N-[cyclopropyl(2,2-dimethyl-3,3-dioxido-1,3-benzoxathiol-5-yl)methyl]-3-(4-fluorophenyl)-N-(pyridin-2-ylmethyl)butanamide] | < 50 nM
CC(CC(=O)N(Cc1ccc(C(F)(F)F)nc1)C(c1ccc(OC(F)F)cc1)C1CC1)c1ccccc1S(C)(=O)=O (centres unmarked) [Example 263] | 50 to 200 nM
CN1CCC(C(c2ccc(F)cc2F)N(Cc2ncccc2F)C(=O)C2CC2c2ccc(F)cc2)CC1 (centres unmarked) [Example 145] | 200 to 1000 nM
CCS(=O)(=O)c1cccc(C(C2CC2)N(Cc2ccc(F)cn2)C(=O)C2CC2c2cccc(C(F)(F)F)c2)c1 (centres unmarked) [Example 212] | 50 to 200 nM
CC(CC(=O)N(Cc1cccnn1)C(c1ccc(OC(F)F)cc1)C1CC1)c1ccccc1C(F)(F)F (centres unmarked) [Example 261] | 200 to 1000 nM
O=C(C1C[C@H]1c1ccc(F)cc1)N(Cc1ccccn1)[C@@H](c1ccc(Cl)cc1)C1CC1 (stereo in doubt) [Example 13, N-[(4-chlorophenyl)(cyclopropyl)methyl]-2-(4-fluorophenyl)-N-(pyridin-2-ylmethyl)cyclopropanecarboxamide] | 50 to 200 nM
O=C(N(Cc1ccccn1)[C@@H](c1ccc(OC(F)F)cc1)C1CC1)C1(S(=O)(=O)c2ccc(F)cc2)CC1 [Example 91, N-{cyclopropyl[4-(difluoromethoxy)phenyl]methyl}-1-[(4-fluorophenyl)sulfonyl]-N-(pyridin-2-ylmethyl)cyclopropanecarboxamide] | 200 to 1000 nM
